Assays:
[1] = DRUGMATRIX: Nicotinic Acetylcholine radioligand binding (ligand: [125I] Epibatidine); format: cell membranes, Membrane; details: imr-32; Not Active = under 50% inhibition at 10 µM
[2] = target: T1, Cytochrome P450 1A2 (Homo sapiens, UniProt P05177); details: bti-tn-5b1-4; also: in other assays of this panel Not Active means under 50% inhibition at 10 µM
T1 sequence (P05177 whole entry): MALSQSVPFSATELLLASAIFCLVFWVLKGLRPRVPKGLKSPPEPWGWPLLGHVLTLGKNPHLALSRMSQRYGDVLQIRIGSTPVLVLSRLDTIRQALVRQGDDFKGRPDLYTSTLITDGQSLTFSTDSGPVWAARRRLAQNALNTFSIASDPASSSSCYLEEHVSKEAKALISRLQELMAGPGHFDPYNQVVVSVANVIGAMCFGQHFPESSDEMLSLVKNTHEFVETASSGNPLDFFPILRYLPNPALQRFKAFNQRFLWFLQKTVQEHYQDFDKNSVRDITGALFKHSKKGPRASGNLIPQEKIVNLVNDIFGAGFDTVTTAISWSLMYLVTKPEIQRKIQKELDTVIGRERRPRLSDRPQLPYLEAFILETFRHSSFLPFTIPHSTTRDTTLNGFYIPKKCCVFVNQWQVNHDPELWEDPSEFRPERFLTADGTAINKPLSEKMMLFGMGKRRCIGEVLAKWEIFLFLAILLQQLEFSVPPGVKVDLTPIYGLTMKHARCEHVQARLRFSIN

[3] = target: T2, Amine oxidase [flavin-containing] A (Homo sapiens, UniProt P21397); assay: DRUGMATRIX: Monoamine Oxidase MAO-A enzyme inhibition (substrate: Kynuramine); parameters: species or system BTI-TN-5B1-4; details: bti-tn-5b1-4; Not Active = under 50% inhibition at 10 µM
T2 sequence (P21397 whole entry): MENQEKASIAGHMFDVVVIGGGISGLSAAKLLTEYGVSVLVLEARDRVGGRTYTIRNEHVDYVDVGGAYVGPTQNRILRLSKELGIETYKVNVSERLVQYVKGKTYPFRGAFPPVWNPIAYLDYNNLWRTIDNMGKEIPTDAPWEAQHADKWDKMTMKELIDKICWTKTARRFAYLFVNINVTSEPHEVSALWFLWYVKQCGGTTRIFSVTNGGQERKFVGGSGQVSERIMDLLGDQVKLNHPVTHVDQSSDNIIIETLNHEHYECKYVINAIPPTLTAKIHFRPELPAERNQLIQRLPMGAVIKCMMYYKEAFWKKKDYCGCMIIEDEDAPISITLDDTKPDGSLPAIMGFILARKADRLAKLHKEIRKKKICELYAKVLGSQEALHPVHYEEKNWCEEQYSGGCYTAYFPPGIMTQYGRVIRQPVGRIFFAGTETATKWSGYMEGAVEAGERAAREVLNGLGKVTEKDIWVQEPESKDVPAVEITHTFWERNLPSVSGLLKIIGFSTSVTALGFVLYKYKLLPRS

[4] = target: T3, Neutrophil elastase (Homo sapiens, UniProt P08246); format: tissue-based;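 also: inhibition of neutrophil elastase enzyme activity, measured with a p-nitroanilide-linked peptide substrate; in other assays of this panel Not Active means under 50% inhibition at 10 µM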
T3 sequence (P08246 whole entry): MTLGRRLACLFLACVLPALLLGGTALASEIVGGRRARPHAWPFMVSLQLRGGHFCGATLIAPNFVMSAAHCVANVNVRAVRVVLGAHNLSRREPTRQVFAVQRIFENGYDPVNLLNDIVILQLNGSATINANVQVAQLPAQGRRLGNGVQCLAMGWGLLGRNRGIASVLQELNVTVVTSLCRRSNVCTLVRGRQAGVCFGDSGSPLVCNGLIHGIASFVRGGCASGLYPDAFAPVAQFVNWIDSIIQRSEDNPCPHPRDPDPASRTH

[5] = target: Cytochrome P450 3A4 (Homo sapiens, UniProt P08684); details: bti-tn-5b1-4; also: in other assays of this panel Not Active means under 50% inhibition at 10 µM
[6] = target: Glycine receptor (Rattus norvegicus, UniProt P22771+P24524+P07727+P20781); format: cell membranes, Wistar, Spinal cord, Membrane; also: in other assays of this panel Not Active means under 50% inhibition at 10 µM
[7] = target: T4, Endothelin-1 receptor (Homo sapiens, UniProt P25101); format: cell membranes, CHO-K1, Membrane; details: cho-k1; also: in other assays of this panel Not Active means under 50% inhibition at 10 µM
T4 sequence (P25101 whole entry): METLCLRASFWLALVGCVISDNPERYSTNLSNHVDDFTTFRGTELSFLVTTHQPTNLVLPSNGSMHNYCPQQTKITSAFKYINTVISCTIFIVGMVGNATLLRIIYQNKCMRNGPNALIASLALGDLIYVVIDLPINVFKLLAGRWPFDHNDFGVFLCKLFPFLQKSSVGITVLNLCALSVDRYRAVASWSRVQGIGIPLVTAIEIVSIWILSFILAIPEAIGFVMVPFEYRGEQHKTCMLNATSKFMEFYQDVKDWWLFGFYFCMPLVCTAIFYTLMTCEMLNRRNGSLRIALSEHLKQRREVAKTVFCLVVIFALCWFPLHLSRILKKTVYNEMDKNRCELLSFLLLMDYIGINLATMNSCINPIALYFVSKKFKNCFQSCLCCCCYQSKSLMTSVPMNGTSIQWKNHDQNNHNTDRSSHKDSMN

[8] = target: T5, Substance-K receptor (Homo sapiens, UniProt P21452); format: cell membranes, CHO, Membrane; details: cho; also: in other assays of this panel Not Active means under 50% inhibition at 10 µM
T5 sequence (P21452 whole entry): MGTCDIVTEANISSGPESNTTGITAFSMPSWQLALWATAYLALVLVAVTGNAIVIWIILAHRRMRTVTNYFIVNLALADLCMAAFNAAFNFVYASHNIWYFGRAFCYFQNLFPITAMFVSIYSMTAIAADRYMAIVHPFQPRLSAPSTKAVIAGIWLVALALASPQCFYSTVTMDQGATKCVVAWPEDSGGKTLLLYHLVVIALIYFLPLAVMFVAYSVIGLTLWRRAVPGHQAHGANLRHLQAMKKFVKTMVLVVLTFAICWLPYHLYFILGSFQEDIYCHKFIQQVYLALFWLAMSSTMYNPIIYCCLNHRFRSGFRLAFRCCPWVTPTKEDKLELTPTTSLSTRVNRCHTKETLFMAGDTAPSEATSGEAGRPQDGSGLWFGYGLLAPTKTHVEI

Cytochrome P450 3A4, sequence (P08684 whole entry): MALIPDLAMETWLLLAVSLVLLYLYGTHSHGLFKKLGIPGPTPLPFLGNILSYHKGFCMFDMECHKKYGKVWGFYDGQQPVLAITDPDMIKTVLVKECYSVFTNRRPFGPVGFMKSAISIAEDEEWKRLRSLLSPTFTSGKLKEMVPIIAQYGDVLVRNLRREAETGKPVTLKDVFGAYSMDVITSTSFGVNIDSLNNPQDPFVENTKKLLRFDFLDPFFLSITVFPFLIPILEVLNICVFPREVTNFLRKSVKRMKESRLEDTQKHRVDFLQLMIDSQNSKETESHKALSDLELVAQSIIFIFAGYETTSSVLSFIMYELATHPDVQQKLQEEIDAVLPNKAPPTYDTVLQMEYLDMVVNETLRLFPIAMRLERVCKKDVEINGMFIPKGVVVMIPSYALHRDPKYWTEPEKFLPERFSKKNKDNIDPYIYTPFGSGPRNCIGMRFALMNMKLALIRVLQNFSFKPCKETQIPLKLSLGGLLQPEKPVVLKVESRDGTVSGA

COc1ncnc(NS(=O)(=O)c2ccc(N)cc2)c1OC [SULFADOXINE]
Not Active: IC50 [1] | Ki [1] | IC50 [2] | Ki [2] | IC50 [3] | IC50 [4] | IC50 [5] | Ki [5] | IC50 [6] | IC50 [7] | IC50 [8]

Nc1ccc(S(=O)(=O)Nc2nccs2)cc1 [SULFATHIAZOLE]
Not Active: IC50 [1] | Ki [1] | IC50 [2] | Ki [2] | IC50 [3] | IC50 [4] | IC50 [5] | Ki [5] | IC50 [6] | IC50 [7] | IC50 [8]

C[C@]12CC[C@H]3[C@@H](CCC4=CC(=O)CC[C@@]43C)[C@@H]1CC[C@@H]2O [TESTOSTERONE]
Not Active: IC50 [1] | Ki [1] | IC50 [2] | Ki [2] | IC50 [3] | IC50 [4] | IC50 [5] | Ki [5] | IC50 [6] | IC50 [7] | IC50 [8]

C[C@@H]1C[C@H]2[C@@H]3CCC4=CC(=O)C=C[C@]4(C)C3=CC[C@]2(C)[C@H]1C(=O)CN1CCN(c2cc(N3CCCC3)nc(N3CCCC3)n2)CC1 [TIRILAZAD]
Not Active: IC50 [1] | Ki [1] | IC50 [2] | Ki [2] | IC50 [3] | IC50 [4] | IC50 [5] | Ki [5] | IC50 [6] | IC50 [7] | IC50 [8]

O=C(O)C(Cl)(Cl)Cl [TRICHLOROACETIC ACID]
Not Active: IC50 [1] | Ki [1] | IC50 [2] | Ki [2] | IC50 [3] | IC50 [4] | IC50 [5] | Ki [5] | IC50 [6] | IC50 [7] | IC50 [8]

CC(=O)O[C@H]1C[C@@H]2CC[C@@H]3[C@H](CC[C@@]4(C)[C@H]3C[C@H]([N+]3(C)CCCCC3)[C@@H]4OC(C)=O)[C@@]2(C)C[C@@H]1N1CCCCC1.[Br-] [VECURONIUM BROMIDE]
Not Active: IC50 [1] | Ki [1] | IC50 [2] | Ki [2] | IC50 [3] | IC50 [4] | IC50 [5] | Ki [5] | IC50 [6] | IC50 [7] | IC50 [8]

COc1cc(C(=O)NS(=O)(=O)c2ccccc2C)ccc1Cc1cn(C)c2ccc(NC(=O)OC3CCCC3)cc12 [ZAFIRLUKAST]
Not Active: IC50 [1] | Ki [1] | IC50 [2] | Ki [2] | IC50 [3] | IC50 [4] | IC50 [5] | Ki [5] | IC50 [6] | IC50 [7] | IC50 [8]

Cc1cn([C@H]2C[C@H](N=[N+]=[N-])[C@@H](CO)O2)c(=O)[nH]c1=O [ZIDOVUDINE]
Not Active: IC50 [1] | Ki [1] | IC50 [2] | Ki [2] | IC50 [3] | IC50 [4] | IC50 [5] | Ki [5] | IC50 [6] | IC50 [7] | IC50 [8]

STANNOUS FLUORIDE
Not Active: IC50 [1] | Ki [1] | IC50 [2] | Ki [2] | IC50 [3] | Ki [3] | IC50 [4] | Ki [4] | IC50 [5] | Ki [5] | IC50 [6] | Ki [6] | IC50 [7] | Ki [7] | IC50 [8] | Ki [8]

THIMEROSAL
Not Active: IC50 [1] | Ki [1] | IC50 [2] | Ki [2] | IC50 [3] | Ki [3] | IC50 [4] | Ki [4] | IC50 [5] | Ki [5] | IC50 [6] | Ki [6] | IC50 [7] | Ki [7] | IC50 [8] | Ki [8]
